Reference: patent US9717803B2, “Enzymatic conjugation of polypeptides” (Innate Pharma, priority 2011, dated 2017)
“Also recorded” adds a separate entry of the source. Like-named read-outs stand apart in the source and are kept apart here.

Experiments:
[1] = target: T1, bacterial transglutaminase (BTG) (Streptomyces mobaraensis, UniProt P81453); type: biochemical; conditions: for BTG coupling, result in words: chADC1 N297S and chSGN35 N297S, 18.5 h
T1 construct: purchased Zedira, Darmstadt, Germany
T1 sequence (P81453 77-407): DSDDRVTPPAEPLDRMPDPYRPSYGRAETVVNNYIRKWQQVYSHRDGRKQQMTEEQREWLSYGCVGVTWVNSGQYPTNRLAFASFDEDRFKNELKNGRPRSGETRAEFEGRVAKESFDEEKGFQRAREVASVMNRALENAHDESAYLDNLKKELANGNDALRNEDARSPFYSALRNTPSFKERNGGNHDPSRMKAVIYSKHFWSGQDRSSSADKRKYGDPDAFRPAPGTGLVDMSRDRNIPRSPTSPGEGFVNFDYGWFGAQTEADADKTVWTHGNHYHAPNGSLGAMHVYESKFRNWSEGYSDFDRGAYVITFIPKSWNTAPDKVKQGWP

[2] = cited from earlier work
[3] = Solubility in water / aqueous buffer; type: physicochemical; conditions: aqueous buffer containing a maximum of 10% DMSO
[4] = chADC1 N297S, 80 eq ligand, 6 U/ml BTG, 1 mg/ml mAb, 37° C.
[5] = PNGaseF-deglycosylated chADC1, 6 U/mL BTG (optimized: 80 eq ligand, 1 mg/ml mAb, 37° C.)
[6] = PNGaseF-deglycosylated chADC1, 80 eq ligand, 6 U/ml BTG, 1 mg/ml mAb, 37° C.
[7] = PNGaseF-deglycosylated chADC1, standard conditions, 1 U/mL BTG
[8] = PNGaseF-deglycosylated chCE7, 80 eq ligand, 6 U/ml BTG, 1 mg/ml mAb, 37° C.
[9] = chADC1 N297Q (two acceptor glutamines per heavy chain), 80 eq ligand, 6 U/ml BTG, 1 mg/ml mAb, 37° C.

[N-]=[N+]=NCCOCCOCCOCCOCCN [Azide-PEG4-NH2, reference compound]
BTG coupling to two glutamines per heavy chain, result in words ([1]; chADC1 N297Q, 80 eq ligand, 6 U/ml BTG, 1 mg/ml mAb, 37° C.): complete coupling to two glutamines on all heavy chains
BTG coupling to heavy chain, result in words [1, 4]: quantitative

NCCCCCNC(=O)CSC1CC(=O)N(CCNC(=O)CN2CCN(CC(=O)O)CCN(CC(=O)O)CCN(CC(=O)O)CC2)C1=O (stereo not shown) [C2-DOTA, 2,2′,2″-(10-(2-((2-(3-((2-((5-aminopentyl)amino)-2-oxoethyl)thio)-2,5-dioxopyrrolidin-1-yl)ethyl)-amino)-2-oxoethyl)-1,4,7,10-tetraazacyclododecane-1,4,7-triyl)triacetic acid]
BTG coupling to heavy chain, result in words [1, 5]: minor peak modified chADC1 heavy chain
heavy chain with one linker coupled (LC-MS peak) [1, 6]: 30%
unmodified heavy chain (LC-MS peak) [1, 6]: 70%
BTG coupling to heavy chain, result in words [1, 7]: only unmodified chADC1 heavy chain
BTG coupling to heavy chain, result in words [1, 4]: quantitative coupling could not be accomplished

NCCCCCNC(=O)CCCCCSC1CC(=O)N(CCNC(=O)CN2CCN(CC(=O)O)CCN(CC(=O)O)CCN(CC(=O)O)CC2)C1=O (stereo not shown) [C6-DOTA, 2,2′,2″-(10-(2-((2-(3-((6-((5-aminopentyl)amino)-6-oxohexyl)thio)-2,5-dioxopyrrolidin-1-yl)ethyl)-amino)-2-oxoethyl)-1,4,7,10-tetraazacyclododecane-1,4,7-triyl)triacetic acid]
unmodified heavy chain (LC-MS peak) [1, 6]: 30%
BTG coupling to heavy chain, result in words [1, 4]: near quantitative coupling

CC[C@@]1(O)C(=O)OCc2c1cc1n(c2=O)Cc2cc3ccccc3nc2-1 [CPT, camptothecin]
solubility in water [2]: about 2.5 μg/ml

CC(=O)O[C@H]1C(=O)[C@@]2(C)[C@H]([C@H](OC(=O)c3ccccc3)[C@]3(O)C[C@H](OC(=O)[C@H](O)[C@@H](NC(=O)c4ccccc4)c4ccccc4)C(C)=C1C3(C)C)[C@]1(OC(C)=O)CO[C@@H]1C[C@@H]2O [PTX, paclitaxel]
solubility in water [2]: less than 1 μg/ml

NCCCCCNC(=O)c1ccc(-c2c3ccc(=O)cc-3oc3cc(O)ccc23)c(C(=O)O)c1 [cadaverin-fluorescein linker, reference compound]
BTG coupling to heavy chain, result in words [1, 5]: coupling could not be achieved; also recorded: Only partial modification

CN(C)c1cccc2c(S(=O)(=O)NCCCCCN)cccc12 [dansyl-cadaverin, reference compound]
solubility in aqueous buffer, in words [3]: limited solubility
BTG coupling to heavy chain, result in words [1, 5]: modification of all heavy chains
BTG coupling to heavy chain, result in words [1, 7]: did not go to completion

biotin-cadaverin [reference compound]
BTG coupling to heavy chain, result in words [1, 5]: modification of all heavy chains
BTG coupling to heavy chain, result in words [1, 7]: did not go to completion

maleimide-valine-citrullin-PAB-MMAF+6C Thiol Linker [MMAF linker]
heavy chain with one linker coupled (LC-MS peak) [1, 6]: 30%
unmodified heavy chain (LC-MS peak) [1, 6]: 70%
heavy chain with one linker coupled (LC-MS peak) [1, 8]: 19%
unmodified heavy chain (LC-MS peak) [1, 8]: 81%
BTG coupling with prolonged incubation, result in words ([1]; PNGaseF-deglycosylated mAb, 160 eq substrate, 6 U/mL BTGase, 40 h or 110 h, 37° C.): does not push the reaction to completion
heavy chain with one MMAF linker (LC-MS peak) [1, 9]: 75%
heavy chain with two MMAF linkers (LC-MS peak) [1, 9]: 25%
BTG coupling, result in words ([1]; 40 eq linker, 4 U/mL or 2 U/mL BTG, 37° C.): quantitatively functionalized
BTG coupling, result in words ([1]; 80 eq linker, 4 U/ml or 2 U/ml BTG, 37° C.): complete functionalization
BTG coupling, result in words ([1]; below 40 eq linker, 4 U/mL or 2 U/mL BTG, 37° C.): no longer quantitative
heavy chain with one linker coupled (LC-MS peak) [1, 4]: greater than 90%
